In patent US20260184710A1, “CASITAS B-LINEAGE LYMPHOMA PROTOONCOGENE B (CBL-B) DEGRADING COMPOUNDS AND ASSOCIATED METHODS OF USE” (Arvinas Operations, Inc., priority 2022, published 2026):

Tests used:
Cbl-b [1] = biological target: T1, Cbl-b (Homo sapiens, UniProt Q13191); assay: Cbl-b Degradation Method A (FACS, anti-Cbl-b antibody staining); assay type: cell-based; settings: Cbl-b-HiBit KI Jurkat Cells, incubated at least 20 hours
T1 construct: Cbl-b-HiBit KI Jurkat Cells were purchased from Promega; host or cells: Cbl-b-HiBiT knock-in Jurkat cells
Procedure, shortened: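 Readout is flow cytometry of fixed, permeabilized cells immunostained for Cbl-b (primary 1:200, AF488 secondary). Cells were Cbl-b-HiBit knock-in Jurkat, exposed to compound ≥20 h at 37 °C; half-maximal degradation concentration (DC50) and maximal degradation (Dmax) calculated relative to control.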

Cbl-b [2] = biological target: T1, Cbl-b; assay: Cbl-b Degradation Method B (Nano-Glo HiBiT lytic detection); assay type: cell-based; settings: Cbl-b-HiBit KI Jurkat Cells, incubated at least 6-24 hours
Procedure, shortened: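 An 11-point, 3-fold compound dilution was applied for 6-24 hours to Jurkat cells carrying HiBiT-tagged endogenous Cbl-b. Lytic HiBiT luminescence quantified residual protein. Outputs are DC50 and Dmax relative to DMSO control.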

T1 sequence (Q13191 whole entry): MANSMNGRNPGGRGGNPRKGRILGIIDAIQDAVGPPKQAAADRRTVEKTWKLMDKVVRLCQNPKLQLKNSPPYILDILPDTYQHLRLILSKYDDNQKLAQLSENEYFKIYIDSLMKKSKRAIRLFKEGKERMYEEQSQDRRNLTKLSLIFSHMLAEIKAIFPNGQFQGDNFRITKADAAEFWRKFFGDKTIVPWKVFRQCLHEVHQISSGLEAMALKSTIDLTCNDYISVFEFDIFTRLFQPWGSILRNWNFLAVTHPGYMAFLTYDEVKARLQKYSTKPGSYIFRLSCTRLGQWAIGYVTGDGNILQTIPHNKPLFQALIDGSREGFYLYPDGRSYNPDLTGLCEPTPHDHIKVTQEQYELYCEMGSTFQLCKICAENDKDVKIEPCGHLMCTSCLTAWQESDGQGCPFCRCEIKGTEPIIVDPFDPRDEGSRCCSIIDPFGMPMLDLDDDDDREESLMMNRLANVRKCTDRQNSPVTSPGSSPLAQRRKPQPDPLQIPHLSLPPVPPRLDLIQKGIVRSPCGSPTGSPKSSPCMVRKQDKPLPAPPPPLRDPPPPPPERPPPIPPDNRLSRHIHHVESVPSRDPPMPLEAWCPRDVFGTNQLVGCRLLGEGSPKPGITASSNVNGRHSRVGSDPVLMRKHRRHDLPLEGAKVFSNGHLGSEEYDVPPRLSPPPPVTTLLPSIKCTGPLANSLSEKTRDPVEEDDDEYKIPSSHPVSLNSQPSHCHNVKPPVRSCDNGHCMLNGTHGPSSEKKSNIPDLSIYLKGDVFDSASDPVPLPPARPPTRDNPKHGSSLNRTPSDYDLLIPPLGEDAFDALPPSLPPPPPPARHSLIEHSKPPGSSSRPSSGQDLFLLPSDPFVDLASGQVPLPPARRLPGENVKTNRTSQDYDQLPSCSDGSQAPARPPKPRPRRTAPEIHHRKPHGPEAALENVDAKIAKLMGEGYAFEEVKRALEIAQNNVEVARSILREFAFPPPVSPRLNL

DC50 (Cbl-b [1]; half maximal degradation, read-out: Cbl-b Degredation Method A IC50): 5 to 50 nM | Dmax (Cbl-b [1]; Jurkat, maximum degradation observed, read-out: Cbl-b Degredation Method A Dmax (%)): 35 to 70% | DC50 (Cbl-b [2]; half maximal degradation, read-out: Cbl-b Degredation Method B IC50): < 5 nM | Dmax (Cbl-b [2]; maximum degradation observed, read-out: Cbl-b Degredation Method B Dmax (%)): 35 to 70%
Structure (SMILES): CC1c2nc(N3CCC(O[C@H]4CC[C@H](CN5C[C@H]6C[C@@H]5CN6Cc5cc6c(c(C(F)(F)F)c5)CN(c5cccc([C@]7(Cc8nncn8C)C[C@@H](C#N)C7)c5)C6=O)CC4)CC3)ccc2C(=O)N1C1CCC(=O)NC1=O (stereo partly drawn) [Example 217, (1r,3r)-3-[(4-methyl-4H-1,2,4-triazol-3-yl)methyl]-3-[3-(1-oxo-6-{[(1R,4R)-5-{[(1r,4r)-4-({1-[6-(2,6-dioxopiperidin-3-yl)-7-methyl-5-oxo-5H,6H,7H-pyrrolo[3,4-b]pyridin-2-yl]piperidin-4-yl}oxy)cyclohexyl]methyl}-2,5-diazabicyclo[2.2.1]heptan-2-yl]methyl}-4-(trifluoromethyl)-2,3-dihydro-1H-isoindol-2-yl)phenyl]cyclobutane-1-carbonitrile]
